Here are results for 90 compounds from a melting point compilation (Tetko et al.; mined from patent text by program, amines drawn as free bases though some values may be those of a salt).

The term melting point denotes the temperature, or range, at which the solid turns liquid. Turning to `CCOC(=O)C=CCOc1ccc(C23CC4CC(CC(C4)C2)C3)cc1`, the melting point lay within 91 to 93 °C.

Regarding `O=C(NOCc1ccccc1)c1ccc(CNC(=O)c2cn3c4c(cccc24)CCC3)cc1`, the melting point was 234 to 235 °C. The result for `NS(=O)(=O)OCCOc1ccc(Cl)cc1` reads 117 to 119 °C; that for `CCCCCCCCCc1c(O)nc(-c2ccc(-c3ccc(CCCCC)cc3F)cc2)nc1O`, 51 °C.

Take `Cc1nc(N)nc(N)c1CCCC(C)c1ccc(-c2cc(F)cc(F)c2)cc1` (stereo not given): the melting point was in the range of 129 to 134 °C. The compound `C=C(C)C(=O)NCCC(=O)Nc1cc(Cl)c(C)c(Cl)c1O` yielded a melting point of 150 to 152 °C. `CCCN1C(=O)N(C2CCN(Cc3cccc(CO)c3)CC2)C(c2ccccc2)c2ccccc21` (stereo not given): the melting point fell in the range of 108 to 112 °C. Regarding `CON1C(C)(C)CC(OC(=O)NNC(=O)OC2CC(C)(C)N(OC)C(C)(C)C2)CC1(C)C`, the melting point lay within 147 to 149 °C. Under `Cc1ccc(-c2ccc3c(c2)C=C(C(=O)Nc2ccc(CCl)cc2)CC3)cc1` stands 178 to 179 °C.

As for `CCCC(=O)N1N=C(c2ccc(N)cc2)c2cc(Cl)c(Cl)cc2CC1C` (stereo not given), the melting point was 193 to 194 °C. The result for `c1ccc(-c2c[nH]c3ccccc23)cc1` reads 148 to 149 °C. Regarding `Cc1cc(C)cc(C(=O)OC2CCCCC2=O)c1` (stereo not given), the melting point lay within 65 to 66 °C. Under `CCOC(=O)c1nc2scc(COCc3ccccc3)c2c(=O)[nH]1` stands 155 to 156 °C; under `CCn1c(=O)c2c(nc(/C=C/c3ccc(OCC(=O)O)cc3)n2C)n(CC)c1=O`, 268 to 269 °C. The result for `OC1CC2OCCN3CCC4c5ccccc5N1C4C23` (stereo not given) reads 180 °C. Regarding `O=C(O)c1ccccc1Oc1ccc(F)cc1`, the melting point was 146 to 147 °C.

In the case of `COC(=O)CNS(=O)(=O)c1c(C(=O)OC)sc2ccccc12`, the melting point was 148 to 150 °C. Under `OCc1nc2n(n1)-c1ccc(Cl)cc1N(c1ccccc1)C2` stands 204 to 207 °C; under `c1ccc(Oc2nc(Oc3ccccc3)nc(N3CCOCC3)n2)cc1`, 166 to 168 °C; under `CCCCOc1c(CO)n(CC2CC2)c(=O)c2ccc(Br)cc12`, 111 to 112 °C. Compound `Nc1cc(OCc2ccccc2)c(C(=O)NC2CN3CCC2CC3)cc1Cl` (stereo not given) returned a melting point of 170 to 171 °C.

`CCCc1ccc(OCCc2c[nH]cn2)cc1` registered a melting point of 168 to 171 °C. `CC(=O)Oc1ccccc1C1SC[C@@H](C(=O)O)N1C(=O)CCSC(=O)c1ccc(C)cc1` (stereo not given in full) returned a melting point of 93 to 96 °C. Under `COc1ccc(C#Cc2ccc(OC)cc2)cc1` stands 140 to 142 °C; under `C=C(C)c1ccc(C2C(C(=O)c3ccc(C(C)C)cc3)=C(O)C(=O)N2c2ccc(C)nn2)cc1` (stereo not given), 274 °C; under `Cn1c(-c2ccccc2)c(C2CCC(C(=O)O)(C(=O)O)CC2)c2ccccc21`, 230 °C. The result for `CC1(C)Oc2ccc(S(=O)(=O)c3ccc(C#N)cc3)cc2[C@@H](N2CCCC2=O)[C@@H]1O` (relative stereo) reads 234 to 235 °C; that for `Nc1sc2c(c1C(=O)c1cc3ccccc3o1)CCC2`, 126 to 129 °C. The result for `CCN(CC)CCOC(=O)c1ccc(NC(=O)c2ccc(-c3ccccc3)cc2)cc1` reads 146 to 149 °C; that for `Cc1nc2c(N)nc3ccccc3c2n1CCCCNC(=O)c1ccccc1`, 164 to 170 °C. With `CC(C)c1cc(Cl)nc(-c2ccc(C#N)cc2)n1`, the melting point worked out at 114 °C. Under `COC1CN(C(=O)c2cc(-c3ccccc3)c(=O)n3c2-c2sccc2C3)C1` stands 192 to 193 °C; under `COc1ccc(C(=O)c2ccc(Cl)c(Cl)c2)c(Cl)c1Cl`, 113 to 140 °C; under `CC(=O)[C@@H]1C[C@H](C(=O)OC(C)(C)C)N(C(=O)CNC(=O)Nc2cccc(C)c2)[C@@H]1c1ccccc1` (racemic), 100 °C. The result for `CCCC(=O)c1ccc(C(CC(=O)Nc2cc(C(N)=O)ccc2C(C)(C)C)CC(C)C)c(OC)c1` (stereo not given) reads 189 to 190 °C; that for `O=C(Nc1ccc2ncnc(Nc3cc(Cl)c(Cl)cc3F)c2c1)C(Cl)Cl`, greater than 300 °C.

`Clc1ccc(-c2cc(C3CCN(Cc4ccc(Cl)c(Cl)c4)CC3)n[nH]2)cc1`: the melting point was in the range of 171 to 174 °C. Consider `O=C(CCC(=O)N1CCC(c2ccc(Cl)cc2)CC1)c1ccc2c(c1)CCN(C1CCCCC1)CC2`, for which the melting point fell in the range of 128 to 130 °C. The result for `COC(=O)c1c[nH]c(=O)c2ccccc12` reads 258 to 260 °C; that for `CC(O)CCCCc1ccc(-c2ccccc2)cc1` (stereo not given), 71 to 72 °C; that for `CC(=O)SCCNC(=O)[C@H](CSC(C)=O)NC(=O)C(C)C`, 125 to 127 °C.

`CCCCOC(=O)Cc1ccc(N2CCN(CCc3cc(C(C)(C)C)c(O)c(C(C)(C)C)c3)CC2)cc1` displayed a melting point of 103 to 105 °C. In the case of `Cc1ccccc1NC(=O)c1ccccc1C(c1ccc(O)cc1)c1ccc(O)cc1`, the melting point was in the range of 267 to 269 °C. Consider `CN1C(=S)N(c2ccc(C#N)c(C(F)(F)F)c2)C(=O)C1(C)C`, for which the melting point stood at 171 °C. Under `CCCc1c(OCCCCCCc2cc(C)c(O)c(O)c2C)ccc(C(=O)O)c1O` stands 170 to 171 °C. Under `CNC(Cc1ccc(Cl)cc1[N+](=O)[O-])c1ccsc1C` (stereo not given) stands 44 to 46 °C. Under `Cn1cc(C2CCN(CCCCNC(=O)c3sc(-c4ccc(C(F)(F)F)cc4)nc3CO)CC2)c2ccccc21` stands 160 °C. `CC#Cc1cnc(OC)nc1` returned a melting point of 88 to 89.5 °C. Under `COC(=O)c1ccc(C#CCO)cc1` stands 81 to 82 °C; under `O=C(O)COc1cccc2c1CCc1sc(S(=O)(=O)C(c3ccccc3)c3ccccc3)nc1-2`, 219 to 221 °C; under `COC(=O)c1oc2cc3ccccc3cc2c1OC`, 121 to 124 °C. The result for `CNC(=O)C(=NOC)c1ccccc1COc1ccc2c(c1)OCC2=NOC` reads 143 to 145 °C. Under `CC(=O)NC[C@H]1CN(c2ccc(N3CCN(C(=O)CCC(=O)c4ccc(Cl)cc4)CC3)c(F)c2)C(=O)O1` stands 208 to 209 °C. As for `COC(=O)C(=O)c1ccccc1Nc1c(Cl)cccc1Cl`, the melting point was 124 to 126 °C.

In the case of `O=S(CCO)Cc1cccnc1` (stereo not given), the melting point was 84 to 86 °C. The result for `O=S1(=O)NCNc2ccc(Br)cc21` reads 200 to 204 °C; that for `O=C(NCc1cccnc1)[NH+]([O-])c1cccc2ccccc12` (stereo not given), 188 °C; that for `COC(=O)c1ccccc1NC(=O)c1ccc(Br)c(C)c1`, 123 °C.

On to `COC(=O)c1cc(C(C)(C)C)c(OC(=O)c2cc(C(C)(C)C)c(O)c(C(C)(C)C)c2)c(C(C)(C)C)c1`, for which the melting point was 206 to 209 °C.

Turning to `C=C(COc1ccccc1C=O)C(=O)OC`, the melting point was 50 to 52 °C. Under `COC(=O)Cc1ccccc1NC(=S)N(C)NC(=O)c1ccccc1` stands 148 to 150 °C; under `CN(C)C(=O)Nc1cccc(Cl)c1`, 138 to 142 °C. As to `O=C1CCCc2c1n(CCBr)c1ccc(Cl)cc21`, the melting point amounted to 121 °C. On to `NS(=O)(=O)c1cscc1C(=O)Cl`, for which the melting point lay within 236 to 238 °C. Under `CCCCCS(=O)(=O)NC(=O)CCc1ccc(OCCOC)cc1OCC1CCCO1` (stereo not given) stands 57.8 to 58.9 °C; under `CCCCCCCCCCCCCCOc1cn(Cc2ccccc2)c(CBr)cc1=O`, 135 to 137 °C.

`COc1cc2nc(C(C)(C)C)sc2cc1NC(=S)N1CCN(CCO)CC1` displayed a melting point of 161 to 162 °C. The result for `Cc1ccc(N2CN(C(C)(C)C)C3=NN=CC3=C2N)cc1` reads 203 to 204 °C; that for `NC(=O)c1ccc(C(F)(F)F)nc1N`, 227 to 229 °C; that for `CN1C(=O)C2C3CCC(C3)C2(c2ccc(F)c(F)c2)C1=O` (stereo not given), 96 to 100 °C. The result for `O=S(=O)(c1ccccc1)c1n[nH]c2ccccc12` reads 118 °C. Under `COc1cc(N)c2nccc(C=Cc3cccc(C(F)(F)F)c3)c2c1` stands 124 to 126 °C. Regarding `COc1ccc(C=Cc2ccncc2)cc1`, the melting point lay in the range of 128 to 130 °C. The result for `CCOc1ccc2[nH]c(C)cc2c1O` reads 77 to 78 °C.

`CCOc1ccccc1OC(Cc1ccccc1)C1=NCCN1` (stereo not given) came in with a melting point of 95 to 97 °C. Under `CCOC(=O)[C@@H](CNC(=O)c1ccccc1)[C@H](C)O` stands 72 to 73 °C. The result for `CCC(C)(C(=O)N(C)C)n1cc(C)c(-c2ccccc2)n1` (stereo not given) reads 102 to 104 °C; that for `O=C(c1ccc(Cl)c(Cl)c1)N1CCCC(c2cc(Br)cc(Br)c2)=N1`, 179 to 182 °C; that for `CCOc1cc(OCc2ccc(OCc3nc(-c4ccccc4)oc3C)cc2)ccc1CCC(=O)O`, 135 to 136 °C. The result for `CCOC(=O)c1ccc(NC(=O)C=C(C)c2ccc(Cl)c(Cl)c2)cc1` reads 149 to 150 °C; that for `O=C(c1ccc(Cl)cc1)C(O)c1ccc(Cl)cc1` (stereo not given), 73 °C; that for `COC(=O)c1ccc(CCc2cc3cc(C#N)ccc3o2)cc1`, 114 to 115 °C. With `Oc1cc2c(cc1CCCOc1ccc3ccccc3c1-c1nnn[nH]1)OC(CCc1ccccc1)C2` (stereo not given), the melting point fell in the range of 121 to 123 °C. The result for `CC(=O)OCCCCN(C)CCCN(C)C(=O)[C@@H]1CCCN1S(=O)(=O)c1ccc(Cl)c(COc2cccc3c(-n4ccnc4)cc(C)nc23)c1Cl` reads 88 °C; that for `Oc1ccc(CNC2=NCCc3ccccc32)cc1`, 177 to 179 °C. The compound `O=C(O)c1cc(-c2ccc(Cl)cc2)nc(-c2ccc(Cl)c(Cl)c2)c1` returned a melting point of 303 to 304 °C.

For the compound `CCCNc1cccc2c1C(=O)c1cccc(NCCC)c1C2=O`, the melting point lay in the range of 153 to 154 °C. `O=C(N[C@H]1CC[C@H](CCN2CCC(c3cccc4c3CCO4)CC2)CC1)c1ccc(-n2cccc2)cc1`: the melting point is 228 °C. As to `CC1(C)CCC(C)(C)c2cc(COc3ccc(C(=O)O)cc3-c3ccccc3)ccc21`, the melting point fell in the range of 195 to 198 °C. The result for `CCCCNC(=O)NC(=N)c1ccccc1` reads 139 to 141 °C.
